Patent US4664850A, “Novel radioactive steroids” (Roussel Uclaf, priority 1983, dated 1987)

Columns and labels:
glucocorticoid receptors [1] = conditions: versus other steroid receptors, particularly mineralocorticoid; TEUTSCH et al. 1981; cited from earlier work
[2] = Stability and metabolism under in vitro incubation conditions; format: in vitro ADME; conditions: for metabolism in vitro in certain tissues: working in vitro, incubation conditions
Procedure: (§1) (d) At 0° C. and 15° C., product A forms complexes with thymus glucocorticoid receptors which are stable for at least 24 hours. […] For this reason, it permits the total number of glucocorticoid fixation sites to be determined in different physiological conditions.

plasmatic proteins = assay: Specific fixation on plasmatic proteins; format: binding; conditions: animals or humans
[3] = biological target: T1, glucocorticoid receptors of cytosol of rat thymus (Rattus norvegicus, UniProt P06536); assay: Fixation on glucocorticoid receptors of rat thymus cytosol (carbon-dextran adsorption); format: binding
T1 construct: carbon-dextran adsorption
T1 sequence (P06536 1-795): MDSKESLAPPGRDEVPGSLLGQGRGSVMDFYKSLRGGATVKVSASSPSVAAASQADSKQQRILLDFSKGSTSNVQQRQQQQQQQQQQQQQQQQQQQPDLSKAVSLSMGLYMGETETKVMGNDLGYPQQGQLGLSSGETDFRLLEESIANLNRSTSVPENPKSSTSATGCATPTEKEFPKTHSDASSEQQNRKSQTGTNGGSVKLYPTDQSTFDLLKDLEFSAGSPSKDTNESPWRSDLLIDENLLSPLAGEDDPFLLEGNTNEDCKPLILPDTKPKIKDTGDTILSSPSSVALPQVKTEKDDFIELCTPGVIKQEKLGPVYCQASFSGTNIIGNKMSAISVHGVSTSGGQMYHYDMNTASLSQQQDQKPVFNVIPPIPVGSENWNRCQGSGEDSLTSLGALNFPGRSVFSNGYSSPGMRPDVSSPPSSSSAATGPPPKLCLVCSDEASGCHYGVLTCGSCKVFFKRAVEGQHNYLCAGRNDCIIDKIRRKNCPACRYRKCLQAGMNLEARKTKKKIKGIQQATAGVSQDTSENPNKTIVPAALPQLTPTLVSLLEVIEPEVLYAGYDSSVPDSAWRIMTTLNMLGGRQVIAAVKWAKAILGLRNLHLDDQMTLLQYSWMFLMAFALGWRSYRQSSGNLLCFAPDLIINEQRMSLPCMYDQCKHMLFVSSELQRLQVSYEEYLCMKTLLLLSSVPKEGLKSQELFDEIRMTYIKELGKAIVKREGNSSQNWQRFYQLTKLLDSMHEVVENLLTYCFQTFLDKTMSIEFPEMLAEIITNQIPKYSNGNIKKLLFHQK
Procedure: as §1

[4] = tested on: glucocorticoid receptors of the hippocampus; assay: Dissociation from glucocorticoid receptors of hippocampus cytosol; format: binding
glucocorticoid receptors [5] = assay: Selectivity of fixation on steroid receptors; format: binding; conditions: compared with similar non-radioactive products
Excerpt: 651-665 (1981)]. Otherwise, other natural or synthetic corticoids which are used for this type of experiment, simultaneously fix on other steroid receptors and particularly on mineralocorticoid receptors. However, during such experiments with non-radioactive 6-methyl-17α-(prop-1-ynyl)-Δ^1,4,6 -androstatriene-11β,17β-diol-3-one, particularly when the tissues […] examined included simultaneously glucocorticoid and mineralocorticoid receptors, it was often necessary to adopt a succession of long and complicated methods.
Because of the radioactivity of the products of formula I, it is much easier to reveal the existence of the glucocorticoid receptors in the tissues of organs when mineralocorticoid receptors are also present, thanks to the use of the usual methods of liaison measurements taking advantage of radioactive products. In addition, what was not possible with a non-radioactive product, such, for example, as determining of the number of sites of fixation of the glucocorticoid receptors, becomes realizable by the use of the products of formula I.

[6] = 0° C. and 15° C., 24 hours, thymus receptor incubation

CC#CC1(O)CCC2C3C=C(C)C4=CC(=O)C=CC4(C)C3C(O)CC21C (stereo not drawn) [6-methyl-17α-(prop-1-ynyl)-Δ^1,4,6-androstatriene-11β,17β-diol-3-one]
selectivity of fixation on glucocorticoid receptors (glucocorticoid receptors [1]): fixes selectively on the glucocorticoid receptors

[3H]C([3H])([3H])C1=CC2C(C(O)CC3(C)C2CCC3(O)C#CC)C2(C)C=CC(=O)C=C12 (stereo not drawn) [Product A, 6-methyl-^3 H3-17α-(prop-1-ynyl)-Δ^1,4,6-androstatriene-11β,17β-diol-3-one]
loss of tritium [2, 6]: does not show any loss of tritium | metabolism under incubation conditions [2, 6]: is not subject to metabolism | specific fixation on plasmatic proteins (plasmatic proteins): does not give rise to any specific fixation | non-specific fixation ([3]; 0° C. and 15° C., 24 hours): only shows a weak non-specific fixation | constant of association (Ka) ([3]; 0° C., rat thymus cytosol, adsorption by carbon-dextran): ~10^9 M^-1 | constant of association relative to dexamethazone ([3]; 0° C., rat thymus cytosol, compared with dexamethazone): about twice as high as that of dexamethazone | stability of complexes with thymus glucocorticoid receptors ([3]; at 0° C. and 15° C.): at least 24 hours | replacement of non-radioactive corticosterone and cortisol fixed on glucocorticoid receptors ([3]; incubation at 15° C. for 24 hours): totally replaces | shape of dissociation curve ([3]; thymus): a curve with one slope | speed of association (K+1) ([3]; towards the glucocorticoid receptors): ~10^6 M^-1 mn^-1 | shape of dissociation curve [4]: a curve with one slope | selective reactivity in respect of the glucocorticoid receptors (glucocorticoid receptors [5]): the same selective reactivity

C[C@]12C[C@H](O)[C@H]3[C@@H](CCC4=CC(=O)CC[C@@]43C)[C@@H]1CC[C@@H]2C(=O)CO [corticosterone, reference compound]
metabolism in vitro in certain tissues [2]: are metabolized in certain tissues

C[C@]12CCC(=O)C=C1CC[C@@H]1[C@@H]2[C@@H](O)C[C@@]2(C)[C@H]1CC[C@]2(O)C(=O)CO [cortisol, reference compound]
metabolism in vitro in certain tissues [2]: are metabolized in certain tissues

^3 H-corticosterone [reference compound]
shape of dissociation curve [4]: a dissociation curve with two slopes
